From patent US12622968B2, “Formulation for oral delivery of proteins, peptides and small molecules with poor permeability” (R.P. Scherer Technologies, LLC, priority 2019, dated 2026)
Several values for one entry are separate records, joined by “and”; a condition that tells them apart may be missing. Equal entries are not always repeated. Where two headings read alike, the source gives them in different places.

Test: Single dose oral capsule pharmacokinetics of BHV-3500 in dogs (plasma LC-MS/MS)
Assay type: in vivo, beagle dogs
Settings: for AUC(0-t): read-out: AUC0-4 hr; for concentration at 0.5 h: 0.5 h post-dose
Experimental: The pharmacokinetics (PK) of BHV-3500 after a single oral capsule of BHV-3500 in dogs were investigated.
After each dose, blood samples (approximately 3 mL from the jugular vein) for determination of plasma levels of BHV-3500 were obtained from of each dog at six time points (pre-dose; 15, 30, and 60 minutes and 2 and 4 hours post-dose. EDTA was used as the anticoagulant. Plasma samples were frozen at approximately −70′C until analyzed.
For the determination of BHV-3500 in plasma, a 50 μL aliquot from each sample was transferred into the appropriate well of a 96-well plate to which 10 μL of 50% acetonitrile (ACN) in water was added, followed by 250 μL of internal standard solution (10 ng/mL BHV-3500-d8 in ACN). After sealing the plate and vortexing for approximately 5 minutes, the plate was centrifuged at 4,000 rpm for 10 minutes at 4±4° C. A portion (100 μL) of the resulting supernatant was transferred to into the appropriate well (containing 300 μL 0.15% formic acid in water) of another 96-well plate. This plate was sealed and its contents mixed prior to instrumental analysis.
Freshly prepared BHV-3500 standard curves and QC samples were analyzed along with the study samples. Instrument calibrators were prepared by adding 10 μL of a stock BHV-3500 solution to 50 μL of blank dog plasma. Blank dog plasma was sourced from BioIVT (Hicksville, NY) and stored frozen at −20° C. Nominal calibrator concentrations ranged from 2.00 to 200 ng/mL. QC samples were prepared at concentrations of 6.00, 50.0 and 150 ng/mL. Calibrators and QC samples were processed for analysis following the extraction procedure described above.
Calibrator, QC and study samples were analyzed under LC-S/MS instrument conditions detailed in Table 7.
Calibration curves were calculated from the linear regression (weighting factor of 1/x2) of the analyte to internal standard peak area ratios versus the analyte concentrations. Concentrations of analyte in the samples were determined using the peak area ratios and the regression parameters of the calibration curves.
Individual animal plasma BHV-3500 concentration data at scheduled (nominal) sampling times were analyzed using the non-compartmental model f r extravascular administration with Phoenix WinNonlin software (Version 8.1; Certara, Princeton, NJ).
Elimination rate constant values (λz) were calculated by log-linear regression on data points of the terminal phase (using Phoenix WinNonlin's Best Fit Lambda Z Calculation Method option) when allowed by the data; the plasma elimination half-life (t1/2) was calculated as ln(2)/λz. Area under the plasma concentration-time curve values from time zero to the concentration at the 4 hour time point (AUC0-4 hr) were calculated by the linear-up/log-down trapezoidal rule.
Nominal dose levels were used for PK analysis. The PK parameters listed below were evaluated (as applicable and when allowed by the data). • Elimination half-life (t1/2) • Time of occurrence of maximum plasma concentration (Tmax) • Maximum plasma concentration (Cmax) • Area under plasma concentration-time curve [0 to the 4 hour time point; AUC0-4hr]

[1] = Group 6, oral capsule, 50 mg BHV-3500 in 25 mg DDM, individual dogs
[2] = female, beagle, dog, plasma, po, 20 mg, Group 3, oral capsule, 20 mg BHV-3500 in 25 mg DDM, average
[3] = female, beagle, dog, plasma, po, 20 mg, Group 3, oral capsule, 20 mg BHV-3500 in 25 mg DDM, individual dogs

In the case of `Cc1cc(C[C@@H](NC(=O)N2CCC(c3cc4ccccc4[nH]c3=O)CC2)C(=O)N2CCN(C3CCN(C)CC3)CC2)cc2cn[nH]c12` [BHV-3500, (R)—N-(3-(7-methyl-1H indazol-5-yl)-1-(4-(1-methylpiperidin-4-yl)piperazin-1-yl)-1-oxopropan-2-yl)-4-(2-oxo-1,2 dihydroquinolin-3-yl)piperidine-1-carboxamide], the “BHV-3500 Concentration in Dog Plasma” value (Group 6, oral capsule, 50 mg BHV-3500 in 25 mg DDM, 2 h post-dose, individual dogs) is reported as “BQL (BQL = below quantitation limit (2.0 ng/mL))”, the “BHV-3500 Concentration in Dog Plasma” value (Group 6, oral capsule, 50 mg BHV-3500 in 25 mg DDM, 4 h post-dose, individual dogs) is reported as “BQL (BQL = below quantitation limit (2.0 ng/mL))” and the AUC0-4 hr [1] is reported as 10.6 ng·h/mL and 24.0 ng·h/mL. For the same compound, the Cmax [1] was 5.34 ng/mL and 2.42 ng/mL and 12.0 ng/mL, the Tmax [1] was 1 h and the concentration at 2 h (female, beagle, dog, plasma, oral, 20 mg, Group 2, 20 mg with Vehicle 6, 2 hours post-dose, read-out: mean plasma exposure) was 22 nM. It also gave a concentration at 2 h (female, beagle, dog, plasma, oral, 20 mg, Group 3, 20 mg with DDM, 2 hours post-dose, read-out: mean plasma exposure) of 29.5 nM, a concentration at 1 h (female, beagle, dog, plasma, oral, 50 mg, Group 5, 50 mg with Vehicle 6, 1 hour post-dose, read-out: mean plasma exposure) of 18 nM and a concentration at 2 h (female, beagle, dog, plasma, oral, 50 mg, Group 5, 50 mg with Vehicle 6, 2 hours post-dose, read-out: mean plasma exposure) of 63.3 nM. It also gave a concentration at 4 h (female, beagle, dog, plasma, oral, 50 mg, Group 6, 50 mg with DDM, 4 hours post-dose, read-out: mean plasma exposure) of 13.5 nM, a concentration at 1 h (female, beagle, dog, plasma, po, 20 mg, Group 2, oral capsule, 20 mg BHV-3500 in 900 mg vehicle of Formulation 2 (SEDDS excipients), 1 h post-dose, average, read-out: BHV-3500 Concentration in Dog Plasma) of 2.57 ng/mL and a concentration at 2 h (female, beagle, dog, plasma, po, 20 mg, Group 2, oral capsule, 20 mg BHV-3500 in 900 mg vehicle of Formulation 2 (SEDDS excipients), 2 h post-dose, average, read-out: BHV-3500 Concentration in Dog Plasma) of 14.2 ng/mL. The concentration at 4 h (female, beagle, dog, plasma, po, 20 mg, Group 2, oral capsule, 20 mg BHV-3500 in 900 mg vehicle of Formulation 2 (SEDDS excipients), 4 h post-dose, average, read-out: BHV-3500 Concentration in Dog Plasma) was 3.09 ng/mL, the AUC(0-t) (female, beagle, dog, plasma, po, 20 mg, Group 2, oral capsule, 20 mg BHV-3500 in 900 mg vehicle of Formulation 2 (SEDDS excipients), average) was 19.8 ng·h/mL and the Cmax (female, beagle, dog, plasma, po, 20 mg, Group 2, oral capsule, 20 mg BHV-3500 in 900 mg vehicle of Formulation 2 (SEDDS excipients), average, read-out: Cmax) was 14.2 ng/mL. For the same compound, the AUC(0-t) (female, beagle, dog, plasma, po, 20 mg, Group 2, oral capsule, 20 mg BHV-3500 in 900 mg vehicle of Formulation 2 (SEDDS excipients), individual dogs) was 19.8 ng·h/mL, the Tmax (female, beagle, dog, plasma, po, 20 mg, Group 2, oral capsule, 20 mg BHV-3500 in 900 mg vehicle of Formulation 2 (SEDDS excipients), individual dogs, read-out: Tmax) was 2 h and the Tmax (female, beagle, dog, plasma, po, 20 mg, Group 2, oral capsule, 20 mg BHV-3500 in 900 mg vehicle of Formulation 2 (SEDDS excipients), median, read-out: Tmax) was 2 h. It also gave a concentration at 0.5 h [2] of 14 ng/mL, a concentration at 0.5 h [3] of 14 ng/mL and a concentration at 1 h (female, beagle, dog, plasma, po, 20 mg, Group 3, oral capsule, 20 mg BHV-3500 in 25 mg DDM, 1 h post-dose, average, read-out: BHV-3500 Concentration in Dog Plasma) of 3.56 ng/mL. For the same compound, the concentration at 1 h (female, beagle, dog, plasma, po, 20 mg, Group 3, oral capsule, 20 mg BHV-3500 in 25 mg DDM, 1 h post-dose, individual dogs, read-out: BHV-3500 Concentration in Dog Plasma) was 3.56 ng/mL, the concentration at 2 h (female, beagle, dog, plasma, po, 20 mg, Group 3, oral capsule, 20 mg BHV-3500 in 25 mg DDM, 2 h post-dose, average, read-out: BHV-3500 Concentration in Dog Plasma) was 18.9 ng/mL and the concentration at 4 h (female, beagle, dog, plasma, po, 20 mg, Group 3, oral capsule, 20 mg BHV-3500 in 25 mg DDM, 4 h post-dose, average, read-out: BHV-3500 Concentration in Dog Plasma) was 2.18 ng/mL. The concentration at 4 h (female, beagle, dog, plasma, po, 20 mg, Group 3, oral capsule, 20 mg BHV-3500 in 25 mg DDM, 4 h post-dose, individual dogs, read-out: BHV-3500 Concentration in Dog Plasma) was 2.18 ng/mL, the AUC(0-t) [2] was 48.1 ng·h/mL and the Cmax (female, beagle, dog, plasma, po, 20 mg, Group 3, oral capsule, 20 mg BHV-3500 in 25 mg DDM, average, read-out: Cmax) was 17.3 ng/mL. For the same compound, the AUC(0-t) [3] was 48.1 ng·h/mL.
